Laboratory results: publication PMC6765138 (Nucleic Acids Research, 2019)

Tests used:
MtPrpR81–486 = biological target: T1, MtPrpR81–486 (Mycobacterium tuberculosis, UniProt O06581)
T1 construct: gene prpR

SEC = biological target: the molecule itself; assay: SEC

| Molecule | X-ray crystal structure of co-purified ligand; LC-HRMS of extracted ligand (MtPrpR81–486) | stoichiometry N (SEC) |
| --- | --- | --- |
| CC(C)(COP(=O)(O)OP(=O)(O)OC[C@H]1O[C@@H](n2cnc3c(N)ncnc32)[C@H](O)[C@@H]1OP(=O)(O)O)[C@@H](O)C(=O)NCCC(=O)NCCS [Coenzyme A] | the predominant CoA was built into all protein chains | – |
| MtPrpR_(81–486) (Mycobacterium tuberculosis PrpR, Rv1129c, residues 81-486, N-terminal His6-tag) (domain or fragment, also called native PrpR_(81–486); wild-type MtPrpR_(81–486); not shown: His6, N-terminal, kept) DARLVADLSDVFTDIGVEHAVSGAQIEEFVARMPEVGHSLVAVHRRLRAATEELEGYRSRATAETELPPARPMPFEEVRDFFYDRNNYIHDLDMAAERMFTESGMRTGGLDIQLAELMRDRFGISVVIDDNLPDTAKRRYHPDTKVLRVAHWLMPGQRAFQIATQLALVGQSDLISSIVATDDQLSTEARGVARIGLANYFAGAFLLPYREFHRAAEQLRYDIDLLGRRFGVGFETVCHRLSTLQRPRQRGIPFIFVRTDKAGNISKRQSATAFHFSRVGGSCPLWVVHDAFAQPERIVRQVAQMPDGRSYFWVAKTTAADGLGYLGPHKNFAVGLGCDLAHAHKLVYSTGVVLDDPSTEVPIGAGCKICNRTSCAQRAFPYLGGRVAVDENAGSSLPYSSTEQSV | – | 4 |
